# Tests used:
# [1] = Aqueous solubility of saturated solution at 21 °C (phosphorus determination by molybdenum blue spectrophotometry); settings: 21 °C; for solubility at 30 min: Milli-Q water, unbuffered, water, thermodynamic from solid; for pH of saturated solution: saturated aqueous solution, agitation time 30 min
# [2] = Protonation constants by (traditional) potentiometric titration (TPT), SUPERQUAD; settings: 0.1 M NaNO3, 25 °C; for pKa: aqueous 0.1 M NaNO3, log K, TPT; for logβx ± 3σ, x = 1 (H3L−) / logβx ± 3σ, x = 2 (H4L) / logβx ± 3σ, x = 3 (H5L+) / logβx ± 3σ, x = −1 (HL3−) / logβx ± 3σ, x = −2 (L4−): overall protonation, zero level H2L2−
# Excerpt: Results were obtained from […] as overall stability constants (log β values); following the chosen zero level H2L^2−. This zero level H2L^2− was chosen in the calculations to avoid any accumulation of errors of protonation constants at different pH ranges. The log β results for reactions (4) and (5) obtained in the final refinements are listed in Table S3 (see Supporting Information) with error limits (±3σ), number of points/number of titrations and χ^2/Σ statistics.
# The details of the experiments using (traditional) potentiometric titration are presented in the Supporting Information. The results of the determination by Sirius instrument are shown in the Supporting Information. Potentiometric titrations of the compounds were performed with the PCA200 apparatus (Sirius Analytical Instruments Ltd, Forest Row, East Sussex, UK).
# Table S2. The effect of pH on aqueous solubility (mg/L) of aminoalkylbis(phosphonates) […]
# Solubility (g/L) of Compound
# Determination of the Protonation Constants Using (traditional) Potentiometric Titration. Reagents:
# Aqueous 0.1 M NaOH was prepared from Titrisol ampoules (Merck) and 0.1 M HNO3 from Convol ampoules (BDH). The background solution was prepared by dissolving NaNO3 in deionised water.
# The NaNO3 and NaCl used in reference electrode were p.a. grade (Merck). The water used in the dilutions and titration solutions was purified with Milli-RO and Milli-Q water purification systems […]
# Potentiometric measurements: The protonation equilibria was studied in aqueous 0.1 M NaNO3 at 25.0 ± 0.1 °C through a series of potentiometric EMF titrations carried out with a Schott-Geräte GmbH […]
# The cell arrangement for the measurement of the hydrogen ion concentration [H+] was as follows:
# −RE […] equilibrium solution […] GE+ (1) where GE denotes a glass electrode (Schott N2680), and RE is Hg, Hg2Cl2 […] 0.01 M NaCl, 0.09 M NaNO3. Expression (2) is valid assuming that the activity coefficients are constant.
# The cell parameter E0 and the liquid junction coefficient jH, valid in acidic solutions, were determined for each titration by adding a known amount of HNO3 to the background electrolyte. The value of the liquid junction coefficient jOH, valid in basic solutions, was determined periodically. Only stable EMF readings were used in the calculations.
# During the measurements of the protonation equilibria, aqueous 0.1 M NaOH or 0.1 M HNO3 was […]
# Four to eight independent titrations were carried out for each ligand. The number of data points used in […]
# Data treatment: Protonation and deprotonation of the ligands were controlled by addition of HNO3 or NaOH. The curves of ZH versus pH were drawn to visualize the experimental data sets. ZH describes the average number of H+ ions added or liberated per mole of ligand and is given by the relationship […]
# where CH denotes the total concentration of protons calculated over the zero level H2L2−.
# In the evaluation of the equilibrium constants, the following two-component equilibria were utilized:
# H2L2− ⇋ H2-xL(2+x)– + xH+ , x = 1–2; β–x (4) xH+ + H2L2− ⇋ Hx+2Lx–2, x = 1–3; βx (5)
# Mathematical analysis of the systems involves a search for protonation models and equilibrium constants that best describe the experimental data. The calculations were carried out with the computer […]
# 1200). The sample standard deviation Σ and the χ2 statistics used as criteria in the selection of the models were those provided by the program. As a means to improve the confidence level, the error limits for log β values determined in this study are reported as three times the standard deviation estimated by the program.
# Figure S2. ZH vs. pH for protonation of compounds (a) 1; (b) 2; (c) 3; (d) 4 and (e) 5.
# [3] = pKa determination with Sirius instrument (PCA200)
# [4] = Thermal analysis (TG/DTA and TGA 7); assay type: physicochemical; settings: for Td / Td (decomposition onset): air; for Td: 5 °C/min; for Temp. range of 1st cleavage: lower limit taken at 0.5 wt-%; for Td (decomposition onset): average from both instruments, heating rate 5 °C/min
# Procedure: Thermal decomposition paths with evaluation of crystal water content were obtained parallel with two instruments; Perkin Elmer STA 6000 thermogravimetric TG/DTA and Perkin Elmer TGA 7 analyzers (Perkin Elmer, Massachusetts, USA). Measurements were carried out in an open platinum crucible (the higher 5 mm crucible was used in TG/DTA and a shallower 2 mm crucible in TGA 7) under air atmosphere (flow rate of 45 mL/min) with a heating rate of 5 °C/min over the temperature range of 25−700 °C. The temperature calibration of STA 6000 was made using melting points of indium (156.60 °C) and zinc (419.5 °C) standards. For TGA 7 magnetic Curie-point calibration technique (Alumel, Ni, Perkalloy, Fe) was used. The weight balance of both instruments was calibrated by measuring a standard weight of 50 mg at room temperature. The sample weights used in the measurements were about 4–8 mg, and for each bisphosphonate, it was attempted to keep the same on both instruments. The melting/dehydration/decomposition behavior of the compounds was also visually monitored using a Stuart Scientific SMP3 melting point apparatus.
# [5] = Effect of temperature on aqueous solubility; settings: Milli-Q water, unbuffered, thermodynamic from solid
# [6] = pKa1 (H4L + H+ ⇋ H5L+), approximate values
solubility at 30 min [1],pH of saturated solution [1],"pKa [2, 6]",pKa ([2]; pKa2 (H3L− + H+ ⇋ H4L)),pKa ([2]; pKa3 (H2L2− + H+ ⇋ H3L−)),pKa ([2]; pKa4 (HL3− + H+ ⇋ H2L2−)),pKa ([2]; pKa5 (L4− + H+ ⇋ HL3−)),"logβx ± 3σ, x = 1 (H3L−) [2]","logβx ± 3σ, x = 2 (H4L) [2]","logβx ± 3σ, x = 3 (H5L+) [2]","logβx ± 3σ, x = −1 (HL3−) [2]","logβx ± 3σ, x = −2 (L4−) [2]",pKa 2 (Sirius) [3],pKa 3 (Sirius) [3],pKa 4 (Sirius) [3],"Onset temperature of first cleavage ([4]; TG/DTA, higher crucible)","Td ([4]; TG/DTA, higher crucible)","Temp. range of 1st cleavage ([4]; TG/DTA, higher crucible)","Onset temperature of first cleavage ([4]; TGA 7, shallow crucible)","Td ([4]; TGA 7, shallow crucible)",SMILES,other results
4010 µg/mL,2.22,0.62,2.3,6.44,10.8,12.1,6.44 ± 0.02,8.74 ± 0.03,9.36 ± 0.51,−10.78 ± 0.02,−22.83 ± 0.03,1.92,2.42,6.40,217 °C,217 °C,198–252 °C,224 °C,224 °C,"NCCCCC(O)(P(=O)(O)O)P(=O)(O)O [Compound 3, (5-Amino-1-hydroxypentylidene)bisphosphonic acid]","Temp. range of 1st cleavage ([4]; TGA 7, shallow crucible): 195–265 °C; Td (decomposition onset) [4]: 220 °C"
2100 µg/mL,2.61,1.08,2.52,6.75,10.7,11.7,6.75 ± 0.03,9.27 ± 0.05,10.35 ± 0.24,−10.67 ± 0.03,−22.32 ± 0.02,3.10,6.46,7.12,193 °C,193 °C,182–212 °C,197 °C,197 °C,"NCCCCCCCC(O)(P(=O)(O)O)P(=O)(O)O [Compound 5, (8-Amino-1-hydroxyoctylidene)bisphosphonic acid]","solubility at 24 h ([5]; 4 °C): 1850 µg/mL; solubility at 24 h ([5]; 7.6 °C): 1900 µg/mL; solubility at 24 h ([5]; 21 °C): 2100 µg/mL; solubility at 24 h ([5]; 30 °C): 2270 µg/mL; solubility at 24 h ([5]; 40 °C): 2400 µg/mL; solubility at 24 h ([5]; 50 °C): 3450 µg/mL; pKa 5 (Sirius) [3]: 10.77; Temp. range of 1st cleavage ([4]; TGA 7, shallow crucible): 175–222 °C; Td (decomposition onset) [4]: 195 °C"

# From PMC6268373, “Systematic Study of the Physicochemical Properties of a Homologous Series of Aminobisphosphonates” (Molecules, 2012)
